Reference: ChEMBL document CHEMBL5113463, “Discovery and preclinical evaluations of JBD0131, a novel nitrodihydro-imidazooxazole anti-tuberculosis agent” (Bioorg Med Chem Lett, 2022)
In brackets after ≈: the same amount, converted by molar mass.

What was measured:
Cytochrome P450 3A4 = Cytochrome P450 3A4 (Homo sapiens, UniProt P08684); test: Inhibition of CYP3A4 (unknown origin); format: ADME
[1] = tested on: Mycobacterium tuberculosis; test: In vivo antimycobacterial activity against Mycobacterium tuberculosis Erdman infected mouse acute tuberculosis infection model assessed as reduction in log10 CFU at 10 mg/kg for 3 weeks at 5 days/week relative to control; format: functional
[2] = Drug distribution in Sprague-Dawley rat intestinal wall at 10 mg/kg, po administered as C14-lableled compound and assessed as radioactivity; format: ADME, organism-based, Intestine; details: in vivo
[3] = Plasma protein binding in dog assessed as bound fraction; format: ADME, cell-free, Canis lupus familiaris; details: read-out: PPB (converted)
[4] = molecular target: Voltage-gated inwardly rectifying potassium channel KCNH2 (Homo sapiens, UniProt Q12809); test: Inhibition of human ERG; format: toxicity
Chain of Voltage-gated inwardly rectifying potassium channel KCNH2 (Q12809 whole entry): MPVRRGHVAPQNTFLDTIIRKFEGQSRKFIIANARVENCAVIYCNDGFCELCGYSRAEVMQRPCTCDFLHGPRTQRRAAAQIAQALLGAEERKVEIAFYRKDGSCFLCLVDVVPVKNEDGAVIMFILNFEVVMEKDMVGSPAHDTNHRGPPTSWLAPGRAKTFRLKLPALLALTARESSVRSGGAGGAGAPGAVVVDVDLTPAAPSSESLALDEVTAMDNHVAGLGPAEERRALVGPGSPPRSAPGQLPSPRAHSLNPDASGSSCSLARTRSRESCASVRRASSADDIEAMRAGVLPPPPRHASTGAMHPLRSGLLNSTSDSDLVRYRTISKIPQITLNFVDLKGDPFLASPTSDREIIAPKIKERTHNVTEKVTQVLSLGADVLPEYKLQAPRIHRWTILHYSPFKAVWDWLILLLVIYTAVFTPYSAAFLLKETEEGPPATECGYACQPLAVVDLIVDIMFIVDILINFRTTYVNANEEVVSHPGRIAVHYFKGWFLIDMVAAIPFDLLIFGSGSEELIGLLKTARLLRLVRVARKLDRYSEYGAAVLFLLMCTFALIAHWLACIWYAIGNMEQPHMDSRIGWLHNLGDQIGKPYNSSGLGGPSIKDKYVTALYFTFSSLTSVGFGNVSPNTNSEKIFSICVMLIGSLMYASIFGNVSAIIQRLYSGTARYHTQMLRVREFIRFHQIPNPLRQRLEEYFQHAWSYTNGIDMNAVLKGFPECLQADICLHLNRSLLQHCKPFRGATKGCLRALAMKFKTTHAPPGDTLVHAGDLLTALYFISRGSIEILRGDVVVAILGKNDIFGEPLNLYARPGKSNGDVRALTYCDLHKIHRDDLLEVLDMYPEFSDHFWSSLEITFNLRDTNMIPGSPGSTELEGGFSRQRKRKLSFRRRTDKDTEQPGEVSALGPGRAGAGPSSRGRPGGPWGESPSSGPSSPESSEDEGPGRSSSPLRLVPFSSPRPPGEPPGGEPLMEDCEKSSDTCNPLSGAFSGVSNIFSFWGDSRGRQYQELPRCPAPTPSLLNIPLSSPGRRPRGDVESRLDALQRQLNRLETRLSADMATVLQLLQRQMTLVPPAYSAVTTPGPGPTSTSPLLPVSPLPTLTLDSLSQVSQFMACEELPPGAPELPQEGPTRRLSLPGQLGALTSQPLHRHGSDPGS

Cytochrome P450 2C19 = Cytochrome P450 2C19 (Homo sapiens, UniProt P33261); test: Inhibition of CYP2C19 (unknown origin); format: ADME
Chain of Cytochrome P450 2C19 (P33261 whole entry): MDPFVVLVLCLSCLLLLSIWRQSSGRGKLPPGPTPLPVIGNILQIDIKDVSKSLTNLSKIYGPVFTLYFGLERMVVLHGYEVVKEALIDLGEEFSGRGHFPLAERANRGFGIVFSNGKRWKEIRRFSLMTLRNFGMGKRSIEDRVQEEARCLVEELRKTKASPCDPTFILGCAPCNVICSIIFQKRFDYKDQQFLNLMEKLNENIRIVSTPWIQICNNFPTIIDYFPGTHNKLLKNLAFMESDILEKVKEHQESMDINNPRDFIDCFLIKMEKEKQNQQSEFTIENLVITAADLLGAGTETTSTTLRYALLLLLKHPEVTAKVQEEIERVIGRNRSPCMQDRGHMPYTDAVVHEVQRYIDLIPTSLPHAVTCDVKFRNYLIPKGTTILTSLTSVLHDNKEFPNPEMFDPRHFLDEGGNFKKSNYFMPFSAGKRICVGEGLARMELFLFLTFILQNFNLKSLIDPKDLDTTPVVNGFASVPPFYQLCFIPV

[5] = Aqueous solubility of compound at pH 7.4; format: physicochemical; details: buffer
[6] = Metabolic stability in human liver microsomes assessed as half life; format: ADME, Microsome
[7] = Mutagenicity in Salmonella typhimurium by Ames test; format: toxicity; details: salmonella enterica subsp. enterica serovar typhimurium; route au
[8] = Volume of distribution in Beagle dog at 0.5 mg/kg, iv; format: ADME, organism-based, Canis lupus familiaris; details: in vivo
[9] = AUC (0-last) in Beagle dog at 2 mg/kg, po; format: ADME, organism-based, Canis lupus familiaris; details: in vivo
[10] = Cytotoxicity against African green monkey vero cells assessed as reduction in cell viability; format: toxicity, cell-based; details: chlorocebus sabaeus
[11] = Metabolic stability in dog liver microsomes assessed as half life; format: ADME, Canis lupus familiaris, Microsome
[12] = AUC (0-last) in CD-1 mouse at 5 mg/kg, po; format: ADME, organism-based; parameters: dose 5 mg/kg, route po; details: mouse, in vivo
[13] = Half life in CD-1 mouse at 0.6 mg/kg, iv; format: ADME, organism-based; details: in vivo
[14] = Volume of distribution in CD-1 mouse at 0.6 mg/kg, iv; format: ADME, organism-based; details: in vivo
[15] = Drug distribution in Sprague-Dawley rat lung at 10 mg/kg, po administered as C14-lableled compound and assessed as radioactivity; format: ADME, organism-based; details: in vivo
Cytochrome P450 2D6 = Cytochrome P450 2D6 (Homo sapiens, UniProt P10635); test: Inhibition of CYP2D6 (unknown origin); format: ADME
Chain of Cytochrome P450 2D6 (P10635 whole entry): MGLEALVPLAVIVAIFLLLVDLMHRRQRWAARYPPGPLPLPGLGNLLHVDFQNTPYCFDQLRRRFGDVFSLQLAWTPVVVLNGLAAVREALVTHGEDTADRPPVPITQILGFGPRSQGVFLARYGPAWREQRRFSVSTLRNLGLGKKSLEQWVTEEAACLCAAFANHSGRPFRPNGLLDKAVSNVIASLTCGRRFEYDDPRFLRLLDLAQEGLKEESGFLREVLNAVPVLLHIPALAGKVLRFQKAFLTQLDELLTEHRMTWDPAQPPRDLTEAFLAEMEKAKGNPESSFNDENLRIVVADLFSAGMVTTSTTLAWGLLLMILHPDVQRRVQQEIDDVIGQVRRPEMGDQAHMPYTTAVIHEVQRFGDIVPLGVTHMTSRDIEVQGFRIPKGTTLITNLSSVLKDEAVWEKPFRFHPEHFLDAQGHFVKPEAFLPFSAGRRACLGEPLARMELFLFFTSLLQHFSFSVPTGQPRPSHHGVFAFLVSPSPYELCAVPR

[16] = Drug distribution in Sprague-Dawley rat liver at 10 mg/kg, po administered as C14-lableled compound and assessed as radioactivity; format: ADME, organism-based; details: in vivo
[17] = Cmax in CD-1 mouse at 5 mg/kg, po; format: ADME, organism-based; parameters: dose 5 mg/kg, route po; details: in vivo
[18] = Cmax in Beagle dog at 2 mg/kg, po; format: ADME, organism-based, Canis lupus familiaris; parameters: dose 2 mg/kg, route po; details: in vivo
[19] = Volume of distribution in Sprague-Dawley rat at 1 mg/kg, iv; format: ADME, organism-based; details: in vivo
[20] = Plasma protein binding in human assessed as bound fraction; format: ADME, cell-free; details: read-out: PPB (converted)
[21] = Oral bioavailability in Sprague-Dawley rat at 4 mg/kg; format: ADME, organism-based; details: in vivo
[22] = tested on: Mycobacterium tuberculosis; test: In vivo antimycobacterial activity against Mycobacterium tuberculosis Erdman infected mouse acute tuberculosis infection model assessed as reduction lung bacterial loads by measuring CFU at 10 to 100 mg/kg for 3 weeks at 5 days/week; format: functional, organism-based; details: dose 10-100 mg/kg, DDE = dose-dependent effect
[23] = Metabolic stability in cynomolgus monkey liver microsomes assessed as half life; format: ADME, Macaca fascicularis, Microsome
[24] = Apparent permeability across apical to basolateral side in dog MDCK cells; format: ADME, cell-based, Canis lupus familiaris
[25] = Efflux ratio of apparent permeability across basolateral to apical over apical to basolateral membrane in dog MDCK cells; format: ADME, cell-based, Canis lupus familiaris
[26] = Plasma protein binding in rat assessed as bound fraction; format: ADME, cell-free; details: read-out: PPB (converted)
[27] = molecular target: T1, A-type voltage-gated potassium channel KCND3 (Homo sapiens, UniProt Q9UK17); test: Inhibition of Kv4.3 (unknown origin)
T1 sequence (Q9UK17 whole entry): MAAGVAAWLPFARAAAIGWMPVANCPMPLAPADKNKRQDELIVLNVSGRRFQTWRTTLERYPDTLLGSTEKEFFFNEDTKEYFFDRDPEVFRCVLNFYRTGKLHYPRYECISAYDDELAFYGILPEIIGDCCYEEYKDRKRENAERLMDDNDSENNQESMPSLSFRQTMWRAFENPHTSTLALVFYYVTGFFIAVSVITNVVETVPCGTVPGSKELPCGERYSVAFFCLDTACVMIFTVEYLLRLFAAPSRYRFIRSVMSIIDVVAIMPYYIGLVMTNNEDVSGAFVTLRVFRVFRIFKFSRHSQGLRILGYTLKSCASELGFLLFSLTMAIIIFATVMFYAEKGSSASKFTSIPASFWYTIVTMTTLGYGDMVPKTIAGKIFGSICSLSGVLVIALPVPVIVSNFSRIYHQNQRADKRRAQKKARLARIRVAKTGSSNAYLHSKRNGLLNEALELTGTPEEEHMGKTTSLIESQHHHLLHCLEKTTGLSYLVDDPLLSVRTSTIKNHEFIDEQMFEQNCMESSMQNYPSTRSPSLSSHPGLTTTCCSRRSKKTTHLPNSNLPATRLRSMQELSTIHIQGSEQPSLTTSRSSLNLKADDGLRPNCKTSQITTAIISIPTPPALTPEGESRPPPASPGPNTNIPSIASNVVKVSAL

[28] = Cmax in Sprague-Dawley rat at 4 mg/kg, po; format: ADME, organism-based; parameters: dose 4 mg/kg, route po; details: in vivo
Cytochrome P450 2C8 = molecular target: T2, Cytochrome P450 2C8 (Homo sapiens, UniProt P10632); test: Inhibition of CYP2C8 (unknown origin); format: ADME
T2 sequence (P10632 whole entry): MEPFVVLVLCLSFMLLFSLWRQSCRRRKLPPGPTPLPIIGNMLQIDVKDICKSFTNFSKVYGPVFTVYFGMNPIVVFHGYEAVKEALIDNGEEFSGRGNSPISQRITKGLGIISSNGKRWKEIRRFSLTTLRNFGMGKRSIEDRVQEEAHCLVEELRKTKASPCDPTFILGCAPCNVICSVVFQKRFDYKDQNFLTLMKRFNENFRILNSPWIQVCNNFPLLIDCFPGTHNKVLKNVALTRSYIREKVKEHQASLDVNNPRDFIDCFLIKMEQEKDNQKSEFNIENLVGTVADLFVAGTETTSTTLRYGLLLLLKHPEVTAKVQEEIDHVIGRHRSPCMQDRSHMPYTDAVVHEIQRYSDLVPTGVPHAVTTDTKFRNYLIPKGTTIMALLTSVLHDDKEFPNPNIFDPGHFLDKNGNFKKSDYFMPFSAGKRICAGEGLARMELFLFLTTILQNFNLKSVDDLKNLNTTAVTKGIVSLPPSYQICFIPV

[29] = Oral bioavailability in Beagle dog at 2 mg/kg; format: ADME, organism-based, Canis lupus familiaris; details: in vivo

Chain of Cytochrome P450 3A4 (P08684 whole entry): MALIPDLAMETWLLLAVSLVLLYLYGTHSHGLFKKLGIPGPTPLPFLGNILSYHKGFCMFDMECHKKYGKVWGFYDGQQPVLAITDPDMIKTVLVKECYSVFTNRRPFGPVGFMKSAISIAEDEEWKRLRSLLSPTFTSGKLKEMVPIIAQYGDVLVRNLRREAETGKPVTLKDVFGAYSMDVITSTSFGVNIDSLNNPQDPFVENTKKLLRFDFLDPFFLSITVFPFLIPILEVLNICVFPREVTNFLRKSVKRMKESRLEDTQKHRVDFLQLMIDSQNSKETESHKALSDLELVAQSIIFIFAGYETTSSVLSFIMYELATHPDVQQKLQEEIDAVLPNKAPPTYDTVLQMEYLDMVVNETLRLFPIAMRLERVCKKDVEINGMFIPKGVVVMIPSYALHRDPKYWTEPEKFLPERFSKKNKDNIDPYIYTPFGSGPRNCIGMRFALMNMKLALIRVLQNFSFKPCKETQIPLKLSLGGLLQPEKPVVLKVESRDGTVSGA

C[C@]1(CN2Cc3nc(-c4ccc(F)cc4)sc3C2)CN=C(N)O1
IC50 (Cytochrome P450 3A4): > 100 µM
Activity [1]: 4 log10CFU
Drug uptake [2]: Active
fraction unbound [3]: 0.036
IC50 [4]: > 13.3 µM
IC50 (Cytochrome P450 2C19): > 100 µM
solubility [5]: 13.5 µM (≈ 4.49 µg/mL)
half-life [6]: 1.78 h
Activity [7]: Non-Toxic
Vd [8]: 4.52 L/kg
AUClast [9]: 1910 ng·h
CC50 [10]: > 32 µg/mL
half-life [11]: 2.52 h
AUClast [12]: 7247 ng·h/mL
half-life [13]: 3.25 h
Vd [14]: 2.69 L/kg
Drug uptake [15]: Active
IC50 (Cytochrome P450 2D6): 80.6 µM
Drug uptake [16]: Active
Cmax [17]: 753 ng/mL
Cmax [18]: 141 nM
Vd [19]: 5.56 L/kg
fraction unbound [20]: 0.018
bioavailability [21]: 66.9%
Activity [22]: Dde
half-life [23]: 1.25 h
Papp A→B [24]: 20.9 ×10⁻⁶ cm/s
efflux ratio [25]: 0.76
fraction unbound [26]: 0.055
IC50 [27]: > 13.3 µM
Cmax [28]: 526 nM
IC50 (Cytochrome P450 2C8): > 100 µM
bioavailability [29]: 26.4%
